Holding throughout (experiment): NCI tumour cell line growth inhibition, 48 h
Assay [1] deals with NCI-H23 lung.
Assay [2] relates to A549 NSCLC.
Assay [3] relates to MCF7 breast.
Assay [4] has as its system MDA-MB-231 breast.
The test system of assay [5] is SN12C renal.
For assay [6], the system named is DU-145 prostate.
Assay [7] deals with MOLT-4 leukemia.
For assay [8], the system named is SK-OV-3 ovarian.
Assay [9] deals with RPMI-8226 leukemia.

Molecules are shown by their SMILES. Where “and” joins values, the source holds several entries; their conditions need not be identical. Equal entries are not always repeated.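 Where inhibition never reached the appropriate level, the endpoint shown equals the highest concentration tested. Otherwise, values were interpolated linearly from a five-concentration, 48-hour dose response in 96-well plates. At the GI50, growth is halved. TGI: total growth inhibition.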 *1 amine or outer side, *2 acyl side, *3 side chain or, on linkers, in order; H or OH if unused. Where a SMILES comes first, the peptide text is derived from it. Bridges are numbered along the chain shown (N, C = ends). [ ]: non-standard residue; d: D form. ξ: configuration not given here. X35 = CC[C@H](C)[C@@H](N[*:1])[C@@H](O)CC(=O)O[C@H](C(=O)[C@H](C)C(=O)[*:2])C(C)C; NMeY = CN[C@@H](Cc1ccc(O)cc1)C(=O)O; dNMeL = CN[C@H](CC(C)C)C(=O)O; ξΔPro = O=C(O)C1C=CCN1

As to `O=[N+]([O-])c1ccc2nc(/C=C(\O)c3ccc(Cl)cc3)c(/C=C(\O)c3ccc(Cl)cc3)nc2c1`, the TGI in assay [1], in assay [2], in assay [3], in [4], in assay [5] and in [6] was greater than 100 µM throughout. Also, the TGI in assay [7] is greater than 100 µM.
As to `C=CCOC1(CC=C)C(=O)OC2C(O)COC21O` (stereo not drawn), the TGI in assay [8], in [1], in assay [2], in assay [3], in assay [4] and in assay [5] was greater than 100 µM throughout. The TGI in [6] and in assay [7] was greater than 100 µM each time.
As for `O=c1nc2ccc3sc4ccccc4c(=O)c3n2c(=O)[nH]1`, the TGI in assay [1], in assay [9], in assay [2], in assay [3], in assay [4] and in [5] was greater than 100 µM each time. The TGI in assay [6] and in assay [7] was greater than 100 µM each time.
With `NC1c2c(Cl)sc(Cl)c2C(=O)C1O` (stereo not drawn), the TGI in [8] was greater than 100 µM; in [1] it was 32.5 µM; in [2], greater than 100 µM; in [3], 66 µM; in assay [4] it was greater than 100 µM; in assay [5], 29.2 µM. The results for the TGI in [6] and in assay [7] were greater than 100 µM and 57.5 µM, respectively.
On to `COc1cccc(C23CCCC(C2)N(C)CC3OC(=O)c2ccccc2)c1OC` (stereo not drawn), for which the TGI in [8] was 97.7 µM; in assay [1], 44.6 µM; in assay [9] it was 55.3 µM; in [2] it was greater than 100 µM; in assay [3], greater than 100 µM; in [6], greater than 100 µM. The TGI in assay [7] was 60.3 µM.
On to `N#Cc1c(N2CCN(c3ccc([N+](=O)[O-])cc3)CC2)[n+](=O)c2ccc(-c3ccc([N+](=O)[O-])cc3)cc2n1[O-]`, for which the TGI in [8] was greater than 100 µM; in assay [1], greater than 100 µM; in [9], greater than 75 µM; in assay [2], greater than 100 µM; in assay [3] it was greater than 100 µM; in assay [4], greater than 48.6 µM. Besides, the TGI in assay [6] and in assay [7] was greater than 100 µM in each case.
Turning to `C=C(C)[C@@H]1CC[C@]2(CO)CC[C@]3(C)[C@H](CC[C@@H]4[C@@](C)(CCCN)[C@H](C(=C)C)CC[C@]43C)[C@@H]12`, the GI50 was 1710 nM in assay [8]; 1460 nM in assay [9]; 1730 nM in assay [2]; 1750 nM in assay [4]; 1390 nM in assay [5]; 1680 nM in assay [6]. Also, the TGI in assay [8] was determined as 3.18 µM; in assay [9], 3.99 µM; in [2], 3.43 µM; in assay [4], 3.19 µM; in assay [5], 2.75 µM; in assay [6], 3.06 µM.
Take `COc1ccccc1NC(=S)N/N=C/c1ccccn1`: the TGI is 34.8 µM in [8]; 6.01 µM in [1]; greater than 22.6 µM in assay [9]; 34.7 µM in assay [2]; greater than 100 µM in assay [3]; greater than 60.1 µM in assay [4]. For the same molecule, the TGI in assay [5] was 5.15 µM; in [6], 19 µM.
In the case of `COc1cc2oc(-c3ccc4c(c3)OCO4)c(OC)c(=O)c2c(O)c1OC`, the TGI in [8], in [1], in assay [2], in assay [3], in [4] and in assay [5] was greater than 50 µM throughout. The TGI in [6] and in assay [7] was greater than 50 µM in each case.
Take `O=C(O)CCSC1=NCCN1`: the TGI in assay [8], in [1], in assay [9], in assay [2], in assay [3] and in [4] was greater than 100 µM each time. Also, the TGI in [5] and in assay [6] was greater than 100 µM each time.
In the case of `CCOC(=O)CCC(NC(=O)OCc1ccccc1)C(=O)NC(CCC(=O)OCC)C(=O)NC(CCC(=O)OCC)C(=O)NNC(=O)OC(C)(C)C` (stereo not drawn), the TGI in assay [1], in assay [9], in [2], in assay [3], in assay [4] and in assay [5] was greater than 100 µM throughout. In assay [7], this molecule displayed a TGI greater than 100 µM.
Regarding `COc1cccc(NC(=O)CC(=O)N2N=C(C)C(N=Nc3ccc(C(=O)O)cc3)C2=O)c1` (stereo not drawn), the TGI in [1], in assay [9], in assay [2], in assay [3], in assay [4] and in [5] was greater than 100 µM each time. The same molecule yielded a TGI in assay [6] greater than 100 µM.
Regarding `COC(=O)c1cc(C)ccc1C1CN=NC12Cc1c(C)cc(C)cc1C2=O` (stereo not drawn), the TGI in assay [8] is 69 µM; in assay [1], 50.4 µM; in [2], greater than 100 µM; in assay [3], 69.1 µM; in assay [4], 65.7 µM; in assay [5] it was greater than 100 µM. For the same molecule, the TGI in assay [6] was greater than 100 µM; in [7], 56.2 µM.
Regarding `COc1ccc2c(c1)C(=O)C1CCC(=O)N1C2c1ccc2c(c1)OCO2` (stereo not drawn), the TGI was 63.1 µM in assay [8]; 39.8 µM in assay [1]; 12.9 µM in [9]; 51.5 µM in assay [2]; 54.6 µM in assay [4]; 24.4 µM in assay [5]. Besides, the TGI is 33.4 µM in [6] and 11.2 µM in assay [7].
As for `CCC1(OC(=O)CN)C(=O)OCc2c1cc1n(c2=O)Cc2cc3cc4c(cc3nc2-1)OCO4` (stereo not drawn), the GI50 in [8] is less than 10 nM; in assay [1], less than 10 nM; in assay [9], 25.3 nM and 23.1 nM; in assay [2] it was less than 10 nM; in assay [3], less than 10 nM; in assay [5], less than 10 nM. Also, the GI50 in assay [7] is less than 10 nM. Moreover, the TGI in assay [8] was 0.174 µM; in assay [1], 0.119 µM and 0.0337 µM; in assay [2] it was 1.2 µM and 0.347 µM; in [3], greater than 100 µM; in assay [5] it was 21.8 µM and > 100 µM; in assay [7], 0.0113 µM.
Consider `C[PH+](c1nc2ccccc2nc1[PH+](C)C(C)(C)C)C(C)(C)C.C[PH+](c1nc2ccccc2nc1[PH+](C)C(C)(C)C)C(C)(C)C.[Au+].[Cl-]` (stereo not drawn), for which the GI50 was 29.3 nM in [8], 26.1 nM in assay [1], 35.7 nM in assay [9] and 40.1 nM in [6]. Further, the TGI worked out at 0.117 µM in assay [8], 0.104 µM in [1], 0.245 µM in [9] and 0.374 µM in [6].
Regarding `CC[C@H](C)[C@H]1NC(=O)[C@@H](NC(=O)[C@@H](CC(C)C)N(C)C(=O)C2C=CCN2)[C@@H](C)OC(=O)[C@H](Cc2ccc(OC)cc2)N(C)C(=O)[C@@H]2CCCN2C(=O)[C@H](CC(C)C)NC(=O)[C@@H](C)C(=O)[C@H](C(C)C)OC(=O)C[C@@H]1O` (stereo partly drawn) (H-[ξΔPro][dNMeL]T[X35]LP[NMeY](Me); ester 3-C), the TGI in [8] is 0.183 µM; in assay [1], 0.0198 µM; in assay [2], greater than 50 µM; in [3], 0.423 µM; in [4] it was less than 0.0464 µM; in [5] it was greater than 50 µM. Besides, the TGI was 0.251 µM in assay [6] and greater than 50 µM in assay [7].
For `O=c1oc2cccnc2n1CCCCN1CCN(c2ccccc2)CC1`, the TGI in assay [8], in assay [1], in assay [9], in assay [2], in assay [3] and in assay [4] was greater than 100 µM each time. Further, the TGI in assay [6] and in assay [7] was greater than 100 µM throughout.
Consider `CCOC(=O)c1c(N)sc2c1C(C(=O)OCC)CCC2` (stereo not drawn), for which the TGI in assay [1], in assay [9], in [2], in assay [3], in assay [4] and in assay [5] was greater than 100 µM throughout. The TGI in assay [7] was greater than 100 µM.
Take `Cc1nc(Nc2nc3ccccc3[nH]2)nc(Cl)c1CCCl`: the TGI in assay [1], in [9], in assay [2], in [4], in assay [5] and in assay [6] was greater than 100 µM in each case. Moreover, the TGI in [7] was greater than 100 µM.
`COC(=O)[C@](C)(Cc1ccccc1)NC(=O)[C@@H](C)N1[C@@H](c2ccccc2)COC1(C)C`: the TGI in assay [8], in assay [1], in assay [9], in [2], in assay [3] and in assay [4] was greater than 100 µM in each case. Moreover, in [7], the TGI is greater than 100 µM.
On to `Cn1c2ccc(C3=NCCN3)cc2c2cc(C3=NCCN3)ccc21`, for which the TGI in [8], in assay [1], in [9], in [2], in [4] and in [5] was greater than 100 µM throughout. In addition, the TGI in assay [6] and in [7] was greater than 100 µM in each case.

The values are drawn from PubChem BioAssay (NCI).
